Assay results reported in patent publication US8653100B2 (AbbVie Inc., priority 2008, dated 2014).
Structures can show the parent of a compound that is named as a salt.

What follows are molecules tested against human GlyT1c transporter (Homo sapiens (Human), UniProt P48067) (assay: Radioligand binding assay using recombinant CHO cell membranes expressing human GlyT1). Conditions: examples 88-204, radioligand not specified by footnote, read-out: radioligand binding Kiapp.
Method: 2. Radioligand binding assays using recombinant CHO cell membranes expressing human GlyT1:
Radioligand binding to human GlyT1c transporter-expressing membranes was carried out as described in Mezler et al., Molecular Pharmacology 74:1705-1715, 2008.
More specifically, [^3H]-(R)-NPTS radioligand binding to human GlyT1c transporter-expressing membranes was measured in duplicate in a total volume of 200 μl in 96-well plates. To 100 μl of membrane suspension (yielding a final membrane protein concentration of 50 μg/ml) in assay buffer (120 mM NaCl, 2 mM KCl, 10 mM Hepes, 1 mM MgCl2, 1 mM CaCl2, pH 7.5) […] of [^3H]-(R)-NPTS (0.5 nM final) were added in assay buffer. For competition experiments 10 μl of buffer or unlabeled compound solution obtained from dilution series of test compounds in DMSO followed. An intermediate 1:10 dilution in assay buffer yielded a final DMSO concentration of 1%. Non-specific binding was determined in the presence of 10 μM Org24598 (or its racemate Org24461) for [^3H]-(R)-NPTS. After incubation at room temperature for 1 h, the incubation mixture was harvested (Tomtec Mach III U Harvester) through 96-well GF/B filter plates (PerkinElmer), presoaked for 1 h with 40 μl per well of 0.1% polyethylene-imine (PEI). After washing twice with ice-cold 50 mM Tris-HCl pH 7.4 buffer, drying and addition of 35 μl scintillator (BetaplateScint, PerkinElmer) per well followed. The radioactivity was determined by liquid scintillation spectrometry in a MicroBeta (PerkinElmer) plate counter.
Data analysis: For binding of [^3H]-(R)-NPTS to cell membranes, the calculation of Kd and Bmax values from the saturation binding assays and the IC50 values from the displacement binding was performed by iterative non-linear regression analysis adapted from the ‘Ligand’ program (Munson and Rodbard, 1980). Radioligand displacement curves in absence or in presence of increasing concentrations of tested compounds were fitted using a one-site fit and the apparent Ki values were calculated from the IC50 values using the Cheng-Prusoff equation (Cheng and Prusoff 1973).

Chain of human GlyT1c transporter (P48067 whole entry): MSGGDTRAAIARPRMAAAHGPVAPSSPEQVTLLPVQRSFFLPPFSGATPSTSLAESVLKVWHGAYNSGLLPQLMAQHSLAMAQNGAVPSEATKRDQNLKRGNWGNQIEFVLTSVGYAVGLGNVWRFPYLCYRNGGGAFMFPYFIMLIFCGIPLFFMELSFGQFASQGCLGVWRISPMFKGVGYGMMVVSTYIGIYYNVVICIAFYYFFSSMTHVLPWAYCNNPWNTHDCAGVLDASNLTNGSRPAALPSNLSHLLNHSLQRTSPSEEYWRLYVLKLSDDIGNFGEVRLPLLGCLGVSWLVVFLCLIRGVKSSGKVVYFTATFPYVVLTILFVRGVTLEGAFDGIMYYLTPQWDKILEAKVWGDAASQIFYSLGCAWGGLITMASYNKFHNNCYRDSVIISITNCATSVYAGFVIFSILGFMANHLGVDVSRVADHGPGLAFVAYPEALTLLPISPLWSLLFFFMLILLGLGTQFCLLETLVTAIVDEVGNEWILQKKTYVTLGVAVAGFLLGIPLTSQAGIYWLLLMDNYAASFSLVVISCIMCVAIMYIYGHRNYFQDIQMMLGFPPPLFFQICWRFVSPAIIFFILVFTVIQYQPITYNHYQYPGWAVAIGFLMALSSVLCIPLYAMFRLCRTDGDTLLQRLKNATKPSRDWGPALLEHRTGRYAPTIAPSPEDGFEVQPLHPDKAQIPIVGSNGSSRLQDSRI

| Compound | Ki [µM] |
| --- | --- |
| CCCS(=O)(=O)NCCOc1ccc2c(c1)C(C1(c3cccc(Cl)n3)CCC1)NCC2 (stereo not shown) [Example 105, N-[2-({1-[1-(6-Chloropyridin-2-yl)cyclobutyl]-1,2,3,4-tetrahydroisoquinolin-7-yl}oxy)ethyl]propane-1-sulfonamide dihydrochloride] | ≤ 0.1 |
| O=S(=O)(NCCOc1ccc2c(c1)C(C1(c3ccc(Cl)cc3)CCC1)NCC2)c1ncn[nH]1 (stereo not shown) [Example 199, N-[2-({1-[1-(4-Chlorophenyl)cyclobutyl]-1,2,3,4-tetrahydroisoquinolin-7-yl}oxy)ethyl]-1H-1,2,4-triazole-5-sulfonamide] | ≤ 10 |
| CN(C)CCS(=O)(=O)NCCOc1ccc2c(c1)C(C1(c3ccc(Cl)cc3)CCC1)NCC2 (stereo not shown) [Example 149, N-[2-({1-[1-(4-Chlorophenyl)cyclobutyl]-1,2,3,4-tetrahydroisoquinolin-7-yl}oxy)ethyl]-2-(dimethylamino)ethanesulfonamide (2E)-but-2-enedioate] | ≤ 0.1 |
| Cn1cnc(S(=O)(=O)NCC(=O)Nc2ccc3c(c2)C(C2(c4ccc(Cl)cc4)CCC2)NCC3)c1 (stereo not shown) [Example 111, N-{1-[1-(4-Chlorophenyl)cyclobutyl]-1,2,3,4-tetrahydroisoquinolin-7-yl}-N˜2˜-[(1-methyl-1H-imidazol-4-yl)sulfonyl]glycinamide dihydrochloride] | ≤ 1 |
| O=S(=O)(NCCOc1ccc2c(c1)C(C1(c3ccc(Cl)cc3)CCC1)NCC2)C1CCNC1 (single isomer, unassigned) [Example 175, N-[2-({1-[1-(4-Chlorophenyl)cyclobutyl]-1,2,3,4-tetrahydroisoquinolin-7-yl}oxy)ethyl]pyrrolidine-3-sulfonamide dihydrochloride] | ≤ 10 |
| O=S(=O)(NCCOc1ccc2c(c1)C(C1(c3ccc(Cl)cc3)CCC1)NCC2)C1CCNC1 (stereo not shown) [Example 159, N-[2-({1-[1-(4-Chlorophenyl)cyclobutyl]-1,2,3,4-tetrahydroisoquinolin-7-yl}oxy)ethyl]pyrrolidine-3-sulfonamide dihydrochloride] | ≤ 0.1 |
| N#Cc1ccc2c(c1)C(C1(c3ccc(Cl)cc3)CCC1)NCC2 (stereo not shown) [Example 92, 1-[1-(4-Chlorophenyl)cyclobutyl]-1,2,3,4-tetrahydroisoquinoline-7-carbonitrile hydrochloride] | ≤ 0.1 |
| CN1CCOc2cc(S(=O)(=O)NCCOc3ccc4c(c3)C(C3(c5ccc(Cl)cc5)CCC3)NCC4)cnc21 (stereo not shown) [Example 185, N-[2-({1-[1-(4-Chlorophenyl)cyclobutyl]-1,2,3,4-tetrahydroisoquinolin-7-yl}oxy)ethyl]-4-methyl-3,4-dihydro-2H-pyrido[3,2-b][1,4]oxazine-7-sulfonamide hydrochloride] | ≤ 10 |
| O=S(=O)(NCCOc1ccc2c(c1)C(C1(c3ccc(Cl)cc3)CCC1)NCC2)C1CCNC1 (single isomer, unassigned) [Example 151, N-[2-({1-[1-(4-Chlorophenyl)cyclobutyl]-1,2,3,4-tetrahydroisoquinolin-7-yl}oxy)ethyl]pyrrolidine-3-sulfonamide dihydrochloride] | ≤ 0.1 |
| CCCS(=O)(=O)NCc1ccc2c(c1)C(C1(c3ccccn3)CCC1)NCC2 (stereo not shown) [Example 125, N-({1-[1-(Pyridin-2-yl)cyclobutyl]-1,2,3,4-tetrahydroisoquinolin-7-yl}methyl)propane-1-sulfonamide trifluoroacetate] | ≤ 10 |
| O=S(=O)(NCCOc1ccc2c(c1)C(C1(c3ccc(Cl)cc3)CCC1)NCC2)C1CCNC1 (single isomer, unassigned) [Example 148, N-[2-({1-[1(4-Chlorophenyl)cyclobutyl]-1,2,3,4-tetrahydroisoquinolin-7-yl}oxy)ethyl]pyrrolidine-3-sulfonamide dihydrochloride] | ≤ 0.1 |
| Nc1ncc(S(=O)(=O)NCCOc2ccc3c(c2)C(C2(c4ccc(Cl)cc4)CCC2)NCC3)s1 (stereo not shown) [Example 163, 2-Amino-N-[2-({1-[1-(4-chlorophenyl)cyclobutyl]-1,2,3,4-tetrahydroisoquinolin-7-yl}oxy)ethyl]-1,3-thiazole-5-sulfonamide dihydrochloride] | ≤ 1 |
| Cn1cc(S(=O)(=O)NCC(=O)Nc2ccc3c(c2)C(C2(c4ccc(Cl)cc4)CCC2)NCC3)cn1 (stereo not shown) [Example 113, N-{1-[1-(4-Chlorophenyl)cyclobutyl]-1,2,3,4-tetrahydroisoquinolin-7-yl}-N˜2˜-[(1-methyl-1H-pyrazol-4-yl)sulfonyl]glycinamide hydrochloride] | ≤ 1 |
| CCCS(=O)(=O)Nc1cccnc1Oc1ccc2c(c1)C(C1(c3ccc(Cl)cc3)CCC1)NCC2 (stereo not shown) [Example 128, N-[2-({1-[1-(4-Chlorophenyl)cyclobutyl]-1,2,3,4-tetrahydroisoquinolin-7-yl}oxy)pyridin-3-yl]propane-1-sulfonamide dihydrochloride] | ≤ 10 |
| NCCCCS(=O)(=O)NCCOc1ccc2c(c1)C(C1(c3ccc(Cl)cc3)CCC1)NCC2 (stereo not shown) [Example 184, 4-Amino-N-[2-({1-[1-(4-chlorophenyl)cyclobutyl]-1,2,3,4-tetrahydroisoquinolin-7-yl}oxy)ethyl]butane-1-sulfonamide (2E)-but-2-enedioate] | ≤ 10 |
| Cn1cc(S(=O)(=O)NCCOc2ccc3c(c2)C(C2(c4ccc(Cl)cc4)CC(F)(F)C2)NCC3)cn1 (single isomer, unassigned) [Example 138, N-[2-({1-[1-(4-Chlorophenyl)-3,3-difluorocyclobutyl]-1,2,3,4-tetrahydroisoquinolin-7-yl}oxy)ethyl]-1-methyl-1H-pyrazole-4-sulfonamide] | ≤ 0.1 |
| NC(=O)Nc1ccc(S(=O)(=O)NCCOc2ccc3c(c2)C(C2(c4ccc(Cl)cc4)CCC2)NCC3)cc1 (stereo not shown) [Example 191, 4-(Carbamoylamino)-N-[2-({1-[1-(4-chlorophenyl)cyclobutyl]-1,2,3,4-tetrahydroisoquinolin-7-yl}oxy)ethyl]benzenesulfonamide hydrochloride] | ≤ 10 |
| CC(=O)Nc1ncc(S(=O)(=O)NCCOc2ccc3c(c2)C(C2(c4ccc(Cl)cc4)CCC2)NCC3)s1 (stereo not shown) [Example 188, N-(5-{[2-({1-[1-(4-Chlorophenyl)cyclobutyl]-1,2,3,4-tetrahydroisoquinolin-7-yl}oxy)ethyl]sulfamoyl}-1,3-thiazol-2-yl)acetamide hydrochloride] | ≤ 10 |
| CCCS(=O)(=O)N(CCN)CCOc1ccc2c(c1)C(C1(c3ccc(Cl)cc3)CCC1)NCC2 (stereo not shown) [Example 174, N-(2-Aminoethyl)-N-[2-({1-[1-(4-chlorophenyl)cyclobutyl]-1,2,3,4-tetrahydroisoquinolin-7-yl}oxy)ethyl]propane-1-sulfonamide dihydrochloride] | ≤ 10 |
| CCCS(=O)(=O)NCCNc1ccc2c(c1)C(C1(c3ccc(Cl)cc3)CCC1)NCC2 (stereo not shown) [Example 89, N-[2-({1-[1-(4-Chlorophenyl)cyclobutyl]-1,2,3,4-tetrahydroisoquinolin-7-yl}amino)ethyl]propane-1-sulfonamide dihydrochloride] | ≤ 0.1 |
| COc1ccc(S(=O)(=O)NCCOc2ccc3c(c2)C(C2(c4ccc(Cl)cc4)CCC2)NCC3)cn1 (stereo not shown) [Example 156, N-[2-({1-[1-(4-Chlorophenyl)cyclobutyl]-1,2,3,4-tetrahydroisoquinolin-7-yl}oxy)ethyl]-6-methoxypyridine-3-sulfonamide hydrochloride] | ≤ 0.1 |
| O=S(=O)(Nc1cccnc1Oc1ccc2c(c1)C(C1(c3ccc(Cl)cc3)CCC1)NCC2)c1cccs1 (stereo not shown) [Example 127, N-[2-({1-[1-(4-Chlorophenyl)cyclobutyl]-1,2,3,4-tetrahydroisoquinolin-7-yl}oxy)pyridin-3-yl]thiophene-2-sulfonamide dihydrochloride] | ≤ 10 |
| O=S(=O)(NCCOc1ccc2c(c1)C(C1(c3ccc(Cl)cc3)CCC1)NCC2)C1CCCNC1 (single isomer, unassigned) [Example 192, N-[2-({1-[1-(4-Chlorophenyl)cyclobutyl]-1,2,3,4-tetrahydroisoquinolin-7-yl}oxy)ethyl]piperidine-3-sulfonamide dihydrochloride] | ≤ 10 |
| O=S(=O)(NCCOc1ccc2c(c1)C(C1(c3ccc(Cl)cc3)CCC1)NCC2)c1ncn[nH]1 (stereo not shown) [Example 204, N-[2-({1-[1-(4-Chlorophenyl)cyclobutyl]-1,2,3,4-tetrahydroisoquinolin-7-yl}oxy)ethyl]-1H-1,2,4-triazole-5-sulfonamide] | ≤ 100 |
| CNCCCS(=O)(=O)NCCOc1ccc2c(c1)C(C1(c3ccc(Cl)cc3)CCC1)NCC2 (stereo not shown) [Example 178, N-[2-({1-[1-(4-Chlorophenyl)cyclobutyl]-1,2,3,4-tetrahydroisoquinolin-7-yl}oxy)ethyl]-3-(methylamino)propane-1-sulfonamide (2E)-but-2-enedioate] | ≤ 10 |
